Source: US10800742B2, “Small molecule compounds targeting PBX1 transcriptional complex” (THE JOHNS HOPKINS UNIVERSITY, priority 2015, dated 2020)

System: SKOV3 carboplatin-resistant cancers
Test: SKOV3CRLuc subcutaneous xenograft
Type: in vivo, athymic nu/nu mice
Details: platinum-resistant mouse tumor model
Method: [MUT] and SKOV3CRLuc cells were injected subcutaneously into the athymic nu/nu mice (3×10^6, n=8 for each group). Parental SKOV3Luc cells were used as a negative control. Mice were intraperitoneally (i.p.) injected with [MUT] (red, 2.5 mg/kg/injection) or DMSO (red arrows) using a 3 days-on 4-days off protocol. Carboplatin (30 mg/kg/injection) was administrated i.p. every other day (green arrows). (B) Tumor volume was measured every other day for 25 to 40 days using a caliper, and luminescence activity was evaluated weekly. (C) Endpoint tumor volumes of [MUT], SKOV3Luc, and SKOV3CRLuc xenografts treated with the indicated drug or drug combination. Student's t-test. (D) Representative bioluminescence images of tumor burden in SKOV3CRLuc-innoculated mice treated with indicated drug. Images captured by the IVIS Spectrum at day 35. […] In vivo bioluminescence images were taken at the same time using the IVIS Spectrum. […] We tested the anti-tumor potency of [MUT]

## N.N.O=C([O-])C1(C(=O)[O-])CCC1.[Pt+2] [carboplatin]
  anti-tumor potency (tumor growth): relatively ineffective
